Bridge positions count the residues as written; N and C are the ends. Square brackets hold non-standard residues; d marks the D form. Peptide text beside a SMILES is read from it. * marks the point of attachment. ξ: configuration not given here. Bip(4'-NHAc) = CC(=O)Nc1ccc(-c2ccc(C[C@H](N)C(=O)O)cc2)cc1; Phe(4-(4-F-Ph)) = N[C@@H](Cc1ccc(-c2ccc(F)cc2)cc1)C(=O)O; Phe(3-CF3) = N[C@@H](Cc1cccc(C(F)(F)F)c1)C(=O)O; Phe(4-CONH2) = NC(=O)c1ccc(C[C@H](N)C(=O)O)cc1; Phe(4-COOH) = N[C@@H](Cc1ccc(C(=O)O)cc1)C(=O)O; Bip = N[C@@H](Cc1ccc(-c2ccccc2)cc1)C(=O)O; Abu(3R-NH2) = C[C@@H](N)[C@H](N)C(=O)O; Phe(3-Me) = Cc1cccc(C[C@H](N)C(=O)O)c1; Abu(3S-NH2) = C[C@H](N)[C@H](N)C(=O)O; d(aThr) = C[C@@H](O)[C@@H](N)C(=O)O; Val(3-OH) = CC(C)(O)[C@H](N)C(=O)O; hPhe = N[C@@H](CCc1ccccc1)C(=O)O; Cha = N[C@@H](CC1CCCCC1)C(=O)O; Cit = NC(=O)NCCC[C@H](N)C(=O)O; Ile(3ξ) = CCC(C)[C@H](N)C(=O)O; Thr(3ξ) = CC(O)[C@H](N)C(=O)O; NEtAla = CCN[C@@H](C)C(=O)O; Carboxymethyl = O=C(O)C*; NMeA = CN[C@@H](C)C(=O)O; Orn = NCCC[C@H](N)C(=O)O; Dab = NCC[C@H](N)C(=O)O

T1 sequence (Q15116 25-288): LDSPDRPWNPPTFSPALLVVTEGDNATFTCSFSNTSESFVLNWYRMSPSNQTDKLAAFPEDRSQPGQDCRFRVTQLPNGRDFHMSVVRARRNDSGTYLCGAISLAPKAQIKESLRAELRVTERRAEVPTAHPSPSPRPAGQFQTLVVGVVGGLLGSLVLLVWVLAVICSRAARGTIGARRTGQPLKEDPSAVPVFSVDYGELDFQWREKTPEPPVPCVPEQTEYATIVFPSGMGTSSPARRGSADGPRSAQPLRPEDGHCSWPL
T2 sequence (Q15116 25-288): as above

The first assay has as its target T1, PE-labeled human PD-L1-Ig binding to Jurkat cell line over-expressing human PD-1 (Jurkat-PD-1) (Homo sapiens, UniProt Q15116).
T1 construct: expressed in transfected cells; host or cells: Jurkat
Description: Jurkat-PD-1 Cell Binding High-Content Screening Assay (CBA): Method 1. As to conditions: Jurkat-hPD-1 cells, PE-labeled PD-L1-Ig 20 nM final; read-out: Jurkat HPDL1 PD1 IC50 (uM) (Method 1).
`CC(C)C[C@@H]1NC(=O)[C@H](Cc2c[nH]c3ccccc23)NC(=O)[C@H](CC(=O)O)NC(=O)[C@H](Cc2ccc(O)cc2)NC(=O)[C@H](Cc2ccccc2)NC(=O)CSC[C@@H](C(=O)NCC(N)=O)NC(=O)[C@H](CO)NC(=O)[C@H](C(C)C)NC(=O)[C@H](CC(C)C)NC(=O)[C@H](CC(N)=O)NC(=O)[C@@H]([C@@H](C)O)NC(=O)[C@H](C)N(C)C(=O)[C@H](C(C)C)NC(=O)[C@H](Cc2ccc(-c3ccccc3)cc2)NC1=O` [Compound 1752] ({CH2CO}-FYDWL[Bip]V[NMeA][d(aThr)]NLVSCG-NH2; thioether N-14): the IC50 came out at 0.03 µM. The same measure, in the same setting: next, `CCN1C(=O)[C@H](CCCNC(=N)N)NC(=O)[C@H](Cc2ccc(-c3ccccc3)cc2)NC(=O)[C@H](C(C)C)NC(=O)[C@H](Cc2c[nH]c3ccccc23)NC(=O)[C@H](CC(=O)O)NC(=O)[C@H](Cc2ccc(O)cc2)NC(=O)[C@H](CC(N)=O)NC(=O)CSC[C@@H](C(=O)N[C@@H](C)C(N)=O)NC(=O)[C@H]([C@@H](C)O)NC(=O)[C@H](C(C)C)NC(=O)[C@H](CC(C)C)NC(=O)[C@H](CCN)NC(=O)[C@@H](CC(C)C)NC(=O)[C@@H]1C` [Compound 1207] ({CH2CO}-NYDWV[Bip]R[NEtAla][dL][Dab]LVTCA-NH2; thioether N-14): 0.07 µM; `CC(C)C[C@@H]1NC(=O)[C@H](CCN)NC(=O)[C@@H](CC(C)C)NC(=O)[C@H](C)N(C)C(=O)[C@H](CCCNC(=N)N)NC(=O)[C@H](Cc2ccc(-c3ccc(F)cc3)cc2)NC(=O)[C@H](C(C)C)NC(=O)[C@H](Cc2c[nH]c3ccccc23)NC(=O)[C@H](CC(=O)O)NC(=O)[C@H](Cc2ccc(O)cc2)NC(=O)[C@H](CC(N)=O)NC(=O)CSC[C@@H](C(=O)N[C@@H](C)C(N)=O)NC(=O)[C@H]([C@@H](C)O)NC(=O)[C@H](C(C)C)NC1=O` [Compound 1229] ({CH2CO}-NYDWV[Phe(4-(4-F-Ph))]R[NMeA][dL][Dab]LVTCA-NH2; thioether N-14): 0.13 µM. On the same count and under the same terms, next, `CCC(C)[C@@H]1NC(=O)[C@H](Cc2ccc(-c3ccccc3)cc2)NC(=O)[C@H](C(C)C)NC(=O)[C@H](Cc2c[nH]c3ccccc23)NC(=O)[C@H](CC(=O)O)NC(=O)[C@H](Cc2ccc(OCC(=O)O)cc2)NC(=O)[C@H](C(C)O)NC(=O)CSC[C@@H](C(=O)N[C@H](CC(N)=O)C(N)=O)NC(=O)[C@H](CO)NC(=O)[C@H](C(C)C)NC(=O)[C@H](CC2CCCCC2)NC(=O)[C@H](CCN)NC(=O)[C@@H](CC(C)C)NC(=O)[C@H](C)N(C)C1=O` (stereo partly drawn) [Compound 2117] ({CH2CO}-[Thr(3ξ)]Y(Carboxymethyl)DWV[Bip][Ile(3ξ)][NMeA][dL][Dab][Cha]VSC[dN]-NH2; thioether N-14): 0.02 µM; `CC(C)C[C@@H]1NC(=O)[C@H](CCCNC(=N)N)NC(=O)[C@@H](CC(C)C)NC(=O)[C@H](C)N(C)C(=O)[C@H](C(C)C)NC(=O)[C@H](Cc2ccc(-c3ccccc3)cc2)NC(=O)[C@H](C(C)C)NC(=O)[C@H](Cc2c[nH]c3ccccc23)NC(=O)[C@H](CC(=O)O)NC(=O)[C@H](Cc2ccc(O)cc2)NC(=O)[C@H](Cc2ccccc2)NC(=O)CSC[C@@H](C(=O)N[C@@H](C)C(N)=O)NC(=O)[C@H](CO)NC(=O)[C@H](C(C)C)NC1=O` [Compound 1770] ({CH2CO}-FYDWV[Bip]V[NMeA][dL]RLVSCA-NH2; thioether N-14): 0.04 µM. Same read-out and setting: next, `CC(C)C[C@@H]1NC(=O)[C@H](CCN)NC(=O)[C@@H](CC(C)C)NC(=O)[C@H](C)N(C)C(=O)[C@H](C(C)C)NC(=O)[C@H](Cc2ccc(-c3ccccc3)cc2)NC(=O)[C@H](C(C)C)NC(=O)[C@H](Cc2c[nH]c3ccccc23)NC(=O)[C@H](CC(=O)O)NC(=O)[C@H](Cc2ccc(C(=O)O)cc2)NC(=O)[C@H](Cc2ccc(OCC(=O)O)cc2)NC(=O)CSC[C@@H](C(=O)N[C@@H](C)C(N)=O)NC(=O)[C@H]([C@@H](C)O)NC(=O)[C@H](C(C)C)NC1=O` [Compound 1570] ({CH2CO}-Y(Carboxymethyl)[Phe(4-COOH)]DWV[Bip]V[NMeA][dL][Dab]LVTCA-NH2; thioether N-14): 0.01 µM; `CC(C)C[C@@H]1NC(=O)[C@H](CCN)NC(=O)[C@@H](CC(C)C)NC(=O)[C@H](C)N(C)C(=O)[C@H](CCCNC(N)=O)NC(=O)[C@H](Cc2ccc(-c3ccccc3)cc2)NC(=O)[C@H](C(C)C)NC(=O)[C@H](Cc2c[nH]c3ccccc23)NC(=O)[C@H](CC(=O)O)NC(=O)[C@H](Cc2ccc(O)cc2)NC(=O)[C@H](Cc2cnc[nH]2)NC(=O)CSC[C@@H](C(=O)N[C@@H](C)C(N)=O)NC(=O)[C@H]([C@@H](C)O)NC(=O)[C@H](C(C)C)NC1=O` [Compound 1356] ({CH2CO}-HYDWV[Bip][Cit][NMeA][dL][Dab]LVTCA-NH2; thioether N-14): 0.02 µM.

A further assay has as its target T2, Alexa fluor-647 labeled human PD-L1-Ig binding to Jurkat cell line over-expressing human PD-1 (Homo sapiens, UniProt Q15116).
T2 construct: expressed in transfected cells; host or cells: Jurkat
The assay is described as follows: Jurkat-PD-1 Cell Binding High-Content Screening Assay (CBA): Method 3 (Alexa fluor-647 labeled PD-L1-Ig). As to conditions: Jurkat-PD-1 cells, Alexa fluor-647 labeled PD-L1-Ig 177 nM; head μM; read-out: CBA Method 3 μM. The method, then: Jurkat-PD-1 Cell Binding High-Content Screening Assay (CBA): Method 3
Alexa fluor-647 was covalently linked to the Ig epitope tag of human PD-L1-Ig and fluorescently labeled PD-L1-Ig was used for the binding studies with a Jurkat cell line over-expressing human PD-1. Briefly, 2.5×10^4 Jurkat-hPD-1 cells were seeded into 384 well plates in 20 μl of RPMI supplemented with 10% fetal calf serum. 12.5 nl of compound was added to cells followed by incubation at 37° C. for 2 hours. Then, 10 ul of Alexa fluor-647 labeled PD-L1-Ig (177 nM final), diluted in RPMI supplemented with 10% fetal calf serum was added to the cells and incubated for 1 hour. Cells were then fixed with 4% paraformaldehyde containing 10 μg/ml Hoechst 33342 and then washed 3× in 100 ul PBS and 100 ul of PBS was added in the final step. Data was collected using the Operetta High Content Imager and the data was analyzed using the columbus software.
Consider `CC(=O)Nc1ccc(-c2ccc(C[C@@H]3NC(=O)[C@H](Cc4cccc(C)c4)NC(=O)[C@H](CC(=O)O)NC(=O)[C@H](Cc4ccc(C(=O)O)cc4)NC(=O)[C@H](CC4CCCCC4)NC(=O)CSC[C@@H](C(=O)N[C@@H](CCN)C(N)=O)NC(=O)[C@H](CCC(N)=O)NC(=O)[C@H](C(C)C)NC(=O)[C@H](CC4CCCCC4)NC(=O)[C@H](CCN)NC(=O)[C@@H](CC(C)C)NC(=O)[C@H](C)N(C)C(=O)[C@H](Cc4ccc(C(=O)O)cc4)NC(=O)[C@H](Cc4ccc(-c5ccccc5)cc4)NC3=O)cc2)cc1` [Example 5200] ({CH2CO}-[Cha][Phe(4-COOH)]D[Phe(3-Me)][Bip(4'-NHAc)][Bip][Phe(4-COOH)][NMeA][dL][Dab][Cha]VQC[Dab]-NH2; thioether N-14), for which the IC50 worked out at 0.02 µM. Take `Cc1cccc(C[C@@H]2NC(=O)[C@H](CC(=O)O)NC(=O)[C@H](Cc3ccc(C(=O)O)cc3)NC(=O)[C@H]([C@H](C)N)NC(=O)CSC[C@@H](C(=O)N[C@@H](CCN)C(N)=O)NC(=O)[C@H](CCC(N)=O)NC(=O)[C@H](C(C)C)NC(=O)[C@H](CC3CCCCC3)NC(=O)[C@H](CCN)NC(=O)[C@@H](CC(C)C)NC(=O)[C@H](C)N(C)C(=O)[C@H](Cc3ccc(C(N)=O)cc3)NC(=O)[C@H](Cc3ccc(-c4ccccc4)cc3)NC(=O)[C@H](Cc3ccc(OCC(=O)O)cc3)NC2=O)c1` [Example 5119] ({CH2CO}-[Abu(3S-NH2)][Phe(4-COOH)]D[Phe(3-Me)]Y(Carboxymethyl)[Bip][Phe(4-CONH2)][NMeA][dL][Dab][Cha]VQC[Dab]-NH2; thioether N-14): the IC50 came to 0.02 µM. Same read-out and setting: the same measure for `Cc1cccc(C[C@@H]2NC(=O)[C@H](CC(=O)O)NC(=O)[C@H](Cc3ccc(OCC(=O)O)cc3)NC(=O)[C@H](CC3CCCCC3)NC(=O)CSC[C@@H](C(=O)N[C@@H](CCN)C(N)=O)NC(=O)[C@H](CCC(=O)O)NC(=O)[C@H](C(C)C)NC(=O)[C@H](CC3CCCCC3)NC(=O)[C@H](CCN)NC(=O)[C@@H](CC(C)C)NC(=O)[C@H](C)N(C)C(=O)[C@H](CCC(N)=O)NC(=O)[C@H](Cc3ccc(-c4ccccc4)cc3)NC(=O)[C@H](CCc3ccccc3)NC2=O)c1` [Example 5214] ({CH2CO}-[Cha]Y(Carboxymethyl)D[Phe(3-Me)][hPhe][Bip]Q[NMeA][dL][Dab][Cha]VEC[Dab]-NH2; thioether N-14): 0.03 µM.

Still in this assay, the particulars now being: Jurkat-PD-1 cells, Alexa fluor-647 labeled PD-L1-Ig 177 nM; nM; read-out: CBA Method 3.
Regarding `CC(C)C[C@H]1NC(=O)[C@H](C)N(C)C(=O)[C@H](CCC(N)=O)NC(=O)[C@H](Cc2ccc(-c3ccccc3)cc2)NC(=O)[C@H](Cc2ccc(OCC(=O)O)cc2)NC(=O)[C@H](Cc2cccc(C(F)(F)F)c2)NC(=O)[C@H](CC(=O)O)NC(=O)[C@H](CCC(N)=O)NC(=O)[C@H](CC2CCCCC2)NC(=O)CSC[C@@H](C(=O)N[C@@H](CCN)C(N)=O)NC(=O)[C@H](CCCN)NC(=O)[C@H](C(C)C)NC(=O)[C@H](CC2CCCCC2)NC(=O)[C@H](CCN)NC1=O` [Example 5248] ({CH2CO}-[Cha]QD[Phe(3-CF3)]Y(Carboxymethyl)[Bip]Q[NMeA][dL][Dab][Cha]V[Orn]C[Dab]-NH2; thioether N-14), the IC50 turned out to be 0.0006 µM. Still for that read-out and setting: next, `Cc1cccc(C[C@@H]2NC(=O)[C@H](CC(=O)O)NC(=O)[C@H](Cc3ccc(OCC(=O)O)cc3)NC(=O)[C@H](CCCNC(=N)N)NC(=O)CSC[C@@H](C(=O)N[C@@H](CCN)C(N)=O)NC(=O)[C@H](CCCN)NC(=O)[C@H](C(C)C)NC(=O)[C@H](CC3CCCCC3)NC(=O)[C@H](CCN)NC(=O)[C@@H](CC(C)C)NC(=O)[C@H](C)N(C)C(=O)[C@H](CCC(N)=O)NC(=O)[C@H](Cc3ccc(-c4ccccc4)cc3)NC(=O)[C@H](Cc3ccc(C(=O)O)cc3)NC2=O)c1` [Example 5183] ({CH2CO}-RY(Carboxymethyl)D[Phe(3-Me)][Phe(4-COOH)][Bip]Q[NMeA][dL][Dab][Cha]V[Orn]C[Dab]-NH2; thioether N-14): 0.0023 µM. Still for that read-out and setting: the same measure for `CC(C)C[C@H]1NC(=O)[C@H](C)N(C)C(=O)[C@H](CCC(N)=O)NC(=O)[C@H](Cc2ccc(-c3ccccc3)cc2)NC(=O)[C@H](CCc2ccccc2)NC(=O)[C@H](Cc2cccc(C(F)(F)F)c2)NC(=O)[C@H](CC(=O)O)NC(=O)[C@H](Cc2ccc(OCC(=O)O)cc2)NC(=O)[C@H]([C@@H](C)N)NC(=O)CSC[C@@H](C(=O)N[C@@H](CCN)C(N)=O)NC(=O)[C@H](CO)NC(=O)[C@H](C(C)(C)O)NC(=O)[C@H](CC2CCCCC2)NC(=O)[C@H](CCN)NC1=O` [Example 5227] ({CH2CO}-[Abu(3R-NH2)]Y(Carboxymethyl)D[Phe(3-CF3)][hPhe][Bip]Q[NMeA][dL][Dab][Cha][Val(3-OH)]SC[Dab]-NH2; thioether N-14): 0.0015 µM.

The values above are taken from US20240409585A1, “MACROCYCLIC IMMUNOMODULATORS” (priority 2021, published 2024).
